Literature values in patent EP0266968A2, “Gelled ointment of vasodilating agent” (Cohen, Gérard G., priority 1986, dated 1988).

Test system: penile arteries

COc1ccc(Cc2nccc3cc(OC)c(OC)cc23)cc1OC [papaverine]
erections in the organic group (29 organic impotent males, intracavernous injection): delayed, weaker and shorter erections
duration of penile erections (40 to 160 mg injected intracavernously): approximately 2 hours
patients whose erections improved significantly (63 patients with angiogenic impotence, repeated intracavernous injections completed by infusion of heparinized saline, mean follow up of one year): 66%
haemodynamic and radiologic studies (done concomitantly with intracavernous injection): strong vasodilation in the penile arteries (even when pathologic) and diminished outflow from the cavernous bodies
